Results on three compounds are retold here after paper PMC12373508, “D-cysteine impairs tumour growth by inhibiting cysteine desulfurase NFS1” (Nature Metabolism, 2025).

Assay [1] concerns the target NFS1 (Homo sapiens, UniProt Q9Y697, C381S). Nature of the assay: microscale thermophoresis. Format: binding. For orientation: Microscale thermophoresis detects binding through changes in fluorescence in a small temperature gradient.
The target of assay [2] is T1, NFS1 (Homo sapiens, UniProt Q9Y697). As to the kind of experiment: reconstituted [2Fe-2S] cluster synthesis by circular dichroism; UV/Vis of Cys-ketimine formation. Format: biochemical.
Target sequence in this assay (Q9Y697 56-457, other chains not shown): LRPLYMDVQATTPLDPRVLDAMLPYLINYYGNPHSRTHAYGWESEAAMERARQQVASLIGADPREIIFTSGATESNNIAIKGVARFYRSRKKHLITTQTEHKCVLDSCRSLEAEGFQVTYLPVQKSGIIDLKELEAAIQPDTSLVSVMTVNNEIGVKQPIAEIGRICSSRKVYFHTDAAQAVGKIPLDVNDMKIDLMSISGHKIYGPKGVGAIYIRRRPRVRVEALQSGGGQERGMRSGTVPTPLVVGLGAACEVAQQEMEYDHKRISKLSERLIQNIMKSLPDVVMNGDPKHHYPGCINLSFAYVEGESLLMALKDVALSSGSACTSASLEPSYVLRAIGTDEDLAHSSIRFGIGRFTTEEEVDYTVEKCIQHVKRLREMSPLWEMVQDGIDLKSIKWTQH
Target sequence in this assay (Q9HD34 whole entry partner, other chains not shown): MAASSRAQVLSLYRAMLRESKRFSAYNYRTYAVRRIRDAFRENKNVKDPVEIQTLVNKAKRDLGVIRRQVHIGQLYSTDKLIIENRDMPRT
Target sequence in this assay (Q16595 81-210 partner, other chains not shown): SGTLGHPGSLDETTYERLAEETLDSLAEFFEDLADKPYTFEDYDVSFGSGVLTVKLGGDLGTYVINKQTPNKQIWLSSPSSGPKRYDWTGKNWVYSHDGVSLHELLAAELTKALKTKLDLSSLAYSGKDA
Target sequence in this assay (Q9H1K1 35-167 partner, other chains not shown): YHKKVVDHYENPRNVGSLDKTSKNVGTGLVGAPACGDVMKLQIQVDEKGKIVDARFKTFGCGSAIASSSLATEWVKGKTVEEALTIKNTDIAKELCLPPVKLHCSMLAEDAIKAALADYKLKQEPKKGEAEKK
Assay [3] deals with T1, NFS1. As to the kind of experiment: X-ray crystal structure after incubation with […] ligand. Format: binding.
Target sequence in this assay (Q9Y697 56-457): as the sequence (Q9Y697 56-457, other chains not shown) above
Target sequence in this assay (Q9HD34 whole entry partner): as the sequence (Q9HD34 whole entry partner, other chains not shown) above
Target sequence in this assay (P0A6A8 2-78 partner): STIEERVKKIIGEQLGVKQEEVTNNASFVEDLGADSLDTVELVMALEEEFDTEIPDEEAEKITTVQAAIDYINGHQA
Target sequence in this assay (Q9H1K1 35-167 partner): as the sequence (Q9H1K1 35-167 partner, other chains not shown) above

Sequence of NFS1 (Homo sapiens, UniProt Q9Y697, C381S) (Q9HD34 whole entry, other chains not shown): as the sequence (Q9HD34 whole entry partner, other chains not shown) above
Sequence of NFS1 (Homo sapiens, UniProt Q9Y697, C381S) (Q9Y697 56-457 C381S, other chains not shown): as the sequence (Q9Y697 56-457, other chains not shown) above, with C326S counted along it

The term Kd denotes the free concentration of one partner at which half of the binding sites on the other are occupied at equilibrium, for simple one-to-one binding. At NFS1 [1], `N[C@H](CS)C(=O)O` [D-Cys, D-cysteine] showed a Kd of 25.6 µM. Besides, the “reconstituted [2Fe-2S] cluster synthesis by circular dichroism; UV/Vis of Cys-ke” value on NFS1 [2] was “when D-Cys is present in excess, the NFS1 enzymatic activity is inhibited”.

`N[C@@H](CS)C(=O)O` [L-Cys, L-cysteine] came in with a Kd at NFS1 [1] of 2.15 µM.

With `C#CC[C@H](N)C(=O)O` [PG, L-propargylglycine], the “X-ray crystal structure after incubation with 1 mM ligand” value on NFS1 [3] is “in the NFS1 active site, we observed an external L-propargylglycine-ketimine”.
